For experiment [1], the system named is Green Peach Aphid (Myzus Persicae). The experiment is described as follows: Insecticidal test for green peach aphid in foliar spray assay (col. MYZUPE). The conditions noted are these: for pest or weed control at 200 ppm: Myzus persicae, 72 h, read-out: MYZUPE 200 ppm (Corrected % Control, rating). In kind it is in vivo. In a few lines: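 Cabbage seedlings with 2-3 true leaves, infested with 20-50 wingless adult and nymph aphids one day earlier, sprayed to runoff at 200 ppm (acetone/methanol stock diluted in 0.025% Tween 20), four pots per treatment. After 3 days at ~25 °C, 40% RH, live aphids counted; corrected % control versus solvent-sprayed plants.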

Experiment [2] has as its system Sweetpotato Whitefly-Crawler (Bemisia Tabaci). In words: Insecticidal test for sweetpotato whitefly-crawler in foliar spray assay (col. BEMITA). The conditions noted are these: for pest or weed control at 200 ppm: Bemisia tabaci, read-out: BEMITA 200 ppm (Corrected % Control, rating). In kind it is in vivo. In a few lines:
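Cotton plants (one 3-5 cm true leaf) infested with whitefly eggs (100-300/plant), held 5-6 days at 82° F, 50% RH until crawlers developed. Sprayed to runoff at 200 ppm (acetone stock diluted in 0.025% Tween 20), four plants per treatment. Live nymphs counted after 8-9 days; % control by Abbott's correction versus solvent check.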

Like-named read-outs stand apart in the source and are kept apart here. Where only a bound is given, the exact number is not on record here.

Take `CSC(C)CC(=O)N(C)c1sc(-c2cncc(F)c2)nc1C` (centres unmarked) [Compound 213]: the pest or weed control at 200 ppm in experiment [1] (green peach aphid) and in experiment [2] (sweetpotato whitefly-crawler) was 80 to 100% in each case.
Take `CSCCC(=O)N(C)c1sc(-c2cncc(C#N)c2)nc1Cl` [Compound 508]: the pest or weed control at 200 ppm in experiment [1] (Abbott's correction formula) was under 80%; in experiment [2] (Abbott's correction formula), 80 to 100%.
For the molecule `CSCC(C)(C)C(=O)Nc1sc(-c2cccnc2)nc1C` [Compound 57], the pest or weed control at 200 ppm in experiment [1] (green peach aphid) and in experiment [2] (sweetpotato whitefly-crawler) was 80 to 100% in each case.
As to `CCc1nc(-c2cccnc2)sc1N(C)C(=O)C(C)CSC` (centres unmarked) [Compound 50], the pest or weed control at 200 ppm in experiment [1] (green peach aphid) and in experiment [2] (sweetpotato whitefly-crawler) was 80 to 100% each time.
With `CN(C(=O)CC(C)(C)[S+](C)[O-])c1sc(-c2cccnc2)nc1Cl` (centres unmarked) [Compound 521], the pest or weed control at 200 ppm was 80 to 100% in experiment [1] (Abbott's correction formula) and under 80% in experiment [2] (Abbott's correction formula).
`C=CCN(C(=O)C(C)CSC)c1sc(-c2cccnc2)nc1C` (centres unmarked) [Compound 426]: the pest or weed control at 200 ppm in experiment [1] (green peach aphid) and in experiment [2] (sweetpotato whitefly-crawler) was 80 to 100% in each case.
As to `CCC(C[S+](C)[O-])C(=O)N(CC)c1sc(-c2cccnc2)nc1Cl` (centres unmarked) [Compound 559], the pest or weed control at 200 ppm in experiment [1] (Abbott's correction formula) and in experiment [2] (Abbott's correction formula) was 80 to 100% throughout.
As for `CSCC(C)(C)C(=O)N(C)c1cnc(-c2cncc(F)c2)s1` [Compound 18, N-[2-(5-fluoropyridin-3-yl)-thiazol-5-yl]-2,2,N-trimethyl-3-methylsulfanyl-propionamide], the pest or weed control at 200 ppm in experiment [1] (green peach aphid) and in experiment [2] (sweetpotato whitefly-crawler) was 80 to 100% each time.
In the case of `CCN(C(=O)c1cnco1)c1sc(-c2cccnc2)nc1Cl` [Compound 542], the pest or weed control at 200 ppm in experiment [1] (Abbott's correction formula) and in experiment [2] (Abbott's correction formula) was 80 to 100% in each case.
Consider `CCN(C(=O)C(C)CS(C)(=O)=O)c1sc(-c2cncc(F)c2)nc1C` (centres unmarked) [Compound 259], for which the “MYZUPE 200 ppm (Corrected % Control, rating)” value in experiment [1] (green peach aphid) is “A (80-100)”. In experiment [2] (sweetpotato whitefly-crawler), the “BEMITA 200 ppm (Corrected % Control, rating)” value is “A (80-100)”.
As for `C/C=C/CN(C(=O)OC(C)(C)C)c1sc(-c2cccnc2)nc1C` [Compound 463], the pest or weed control at 200 ppm in experiment [1] (Abbott's correction formula) and in experiment [2] (Abbott's correction formula) was under 80% throughout.
On to `CSCC(C)C(=O)N(C(C)=O)c1sc(-c2cccnc2)nc1C` (centres unmarked) [Compound 184], for which the pest or weed control at 200 ppm in experiment [1] (green peach aphid) and in experiment [2] (sweetpotato whitefly-crawler) was 80 to 100% each time.
With `CCCC(C)(C)OC(=O)Nc1sc(-c2cccnc2)nc1C` [Compound 192], the pest or weed control at 200 ppm in experiment [1] (green peach aphid) and in experiment [2] (sweetpotato whitefly-crawler) was 80 to 100% in each case.
Turning to `CC1CC1C(=O)N(C)c1sc(-c2cccnc2)nc1Cl` (centres unmarked) [Compound 569], the pest or weed control at 200 ppm in experiment [1] (Abbott's correction formula) and in experiment [2] (Abbott's correction formula) was 80 to 100% each time.
Consider `CCN(C(=O)c1ccnc(C)c1)c1sc(-c2cccnc2)nc1Cl` [Compound 544], for which the pest or weed control at 200 ppm in experiment [1] (Abbott's correction formula) is 80 to 100%; in experiment [2] (Abbott's correction formula), under 80%.
Regarding `COCC(=O)N1CCCC(C(=O)N(C)c2sc(-c3cncc(F)c3)nc2C)C1` (centres unmarked) [Compound 583], the pest or weed control at 200 ppm in experiment [1] (Abbott's correction formula) and in experiment [2] (Abbott's correction formula) was 80 to 100% each time.
For the molecule `CSC(C)CC(=O)N(C)c1sc(-c2cncc(F)c2)nc1Cl` (centres unmarked) [Compound 442], the pest or weed control at 200 ppm in experiment [1] (Abbott's correction formula) and in experiment [2] (Abbott's correction formula) was 80 to 100% throughout.
For `CSC(C)(C)CC(=O)N(C)c1sc(-c2cccnc2)nc1Cl` [Compound 489], the pest or weed control at 200 ppm in experiment [1] (Abbott's correction formula) and in experiment [2] (Abbott's correction formula) was 80 to 100% each time.
As for `CN(C(=O)C(F)(F)F)c1sc(-c2cccnc2)nc1Cl` [Compound 6, N-(4-Chloro-2-pyridin-3-yl-thiazol-5-yl)-2,2,2-trifluoro-N-methyl-acetamide], the pest or weed control at 200 ppm in experiment [1] (green peach aphid) and in experiment [2] (sweetpotato whitefly-crawler) was under 80% throughout.
On to `CSCC(C)C(=O)N(Cc1ccccc1)c1sc(-c2cccnc2)nc1C` (centres unmarked) [Compound 221], for which the pest or weed control at 200 ppm in experiment [1] (green peach aphid) was 80 to 100%; in experiment [2] (sweetpotato whitefly-crawler), under 80%.
`CSCC(C)C(=O)N(C)c1sc(-c2cccnc2)nc1C(F)(F)F` (centres unmarked) [Compound 44]: the pest or weed control at 200 ppm in experiment [1] (green peach aphid) and in experiment [2] (sweetpotato whitefly-crawler) was 80 to 100% throughout.
In the case of `Cc1nc(-c2cccnc2)sc1NC(=O)CN(C)C(=O)C(C)n1cccn1` (centres unmarked) [Compound 429], the figures for the pest or weed control at 200 ppm in experiment [1] (Abbott's correction formula) and in experiment [2] (Abbott's correction formula) were 80 to 100% and under 80%, respectively.
As for `C/C=C/CN(C(=O)C(C)CSC)c1sc(-c2cccnc2)nc1C` (centres unmarked) [Compound 466], the pest or weed control at 200 ppm is 80 to 100% in experiment [1] (Abbott's correction formula) and under 80% in experiment [2] (Abbott's correction formula).
In the case of `CCN(C(=O)OC(C)(C)C)c1sc(-c2cccnc2)nc1Cl` [Compound 304, (4-chloro-2-pyridin-3-yl-thiazol-5-yl)-ethyl-carbamic Acid Tert-Butyl Ester], the pest or weed control at 200 ppm in experiment [1] (green peach aphid) and in experiment [2] (sweetpotato whitefly-crawler) was 80 to 100% in each case.
For the molecule `CSCC(Cc1ccccc1)C(=O)N(C)c1sc(-c2cccnc2)nc1Cl` (centres unmarked) [Compound 331], the pest or weed control at 200 ppm was under 80% in experiment [1] (green peach aphid) and 80 to 100% in experiment [2] (sweetpotato whitefly-crawler).
In the case of `CCN(C(=O)CCS(C)(=O)=O)c1sc(-c2cncc(F)c2)nc1C` [Compound 257], the “MYZUPE 200 ppm (Corrected % Control, rating)” value in experiment [1] (green peach aphid) is “A (80-100)”. In addition, the “BEMITA 200 ppm (Corrected % Control, rating)” value in experiment [2] (sweetpotato whitefly-crawler) is “A (80-100)”.
On to `CSCC(C)C(=O)N(C(=O)C(C)CSC)c1sc(-c2cncc(F)c2)nc1C` (centres unmarked) [Compound 188], for which the pest or weed control at 200 ppm in experiment [1] (green peach aphid) and in experiment [2] (sweetpotato whitefly-crawler) was 80 to 100% throughout.
As for `CN(C(=O)OC(C)(C)C)c1sc(-c2cccnc2)nc1C(F)(F)F` [Compound 10, methyl-(2-pyridin-3-yl-4-trifluoromethyl-thiazol-5-yl)carbamic acid tert-butyl ester], the pest or weed control at 200 ppm in experiment [1] (green peach aphid) was under 80%; in experiment [2] (sweetpotato whitefly-crawler) it was 80 to 100%.
`CCC(C)NC(=O)N(C)c1cnc(-c2cncc(F)c2)s1` (centres unmarked) [Compound 73, 3-sec-Butyl-1-[2-(5-fluoropyridin-3-yl)-thiazol-5-yl]-1-methyl-urea]: the pest or weed control at 200 ppm in experiment [1] (green peach aphid) and in experiment [2] (sweetpotato whitefly-crawler) was 80 to 100% in each case.
For `CCN(C(=O)C(C)C)c1sc(-c2cccnc2)nc1-c1ccccc1` [Compound 63], the pest or weed control at 200 ppm in experiment [1] (green peach aphid) and in experiment [2] (sweetpotato whitefly-crawler) was under 80% each time.
Take `Cc1nc(-c2cccnc2)sc1N(C)C(=O)C(C)C` [Compound 37]: the pest or weed control at 200 ppm in experiment [1] (green peach aphid) and in experiment [2] (sweetpotato whitefly-crawler) was 80 to 100% in each case.
For `CS[C@H]1CC1C(=O)N(C)c1sc(-c2cncc(F)c2)nc1Cl` (mixture of isomers) [Compound 445], the pest or weed control at 200 ppm in experiment [1] (Abbott's correction formula) and in experiment [2] (Abbott's correction formula) was 80 to 100% each time.
On to `Cc1nc(-c2cccnc2)sc1N(C)C(=O)C1CCCN(C(=O)C(C)C)C1` (centres unmarked) [Compound 410], for which the pest or weed control at 200 ppm in experiment [1] (green peach aphid) and in experiment [2] (sweetpotato whitefly-crawler) was 80 to 100% throughout.
As for `Cc1nc(-c2cccnc2)sc1NC(=O)c1ccoc1` [Compound 399], the pest or weed control at 200 ppm in experiment [1] (green peach aphid) and in experiment [2] (sweetpotato whitefly-crawler) was 80 to 100% in each case.
For `CCN(C(=O)CCSc1ccccc1)c1sc(-c2cccnc2)nc1C` [Compound 321], the pest or weed control at 200 ppm in experiment [1] (green peach aphid) is 80 to 100%; in experiment [2] (sweetpotato whitefly-crawler) it was under 80%.
With `Cc1nc(-c2cccnc2)sc1NC(=O)c1cscn1` [Compound 340], the pest or weed control at 200 ppm in experiment [1] (green peach aphid) was 80 to 100%; in experiment [2] (sweetpotato whitefly-crawler) it was under 80%.
As to `CSCC(C)C(=O)N(C)c1sc(-c2cccnc2)nc1C(C)C` (centres unmarked) [Compound 60], the pest or weed control at 200 ppm in experiment [1] (green peach aphid) and in experiment [2] (sweetpotato whitefly-crawler) was under 80% in each case.
As to `CC(C[S+](C)[O-])C(=O)N(C)c1sc(-c2cccnc2)nc1C(F)(F)F` (centres unmarked) [Compound 89], the pest or weed control at 200 ppm in experiment [1] (green peach aphid) is under 80%; in experiment [2] (sweetpotato whitefly-crawler), 80 to 100%.
Regarding `CSCCC(=O)N(C)c1sc(-c2cccnc2)nc1C` [Compound 35], the pest or weed control at 200 ppm in experiment [1] (green peach aphid) and in experiment [2] (sweetpotato whitefly-crawler) was 80 to 100% each time.
As for `CCN(C(=O)c1ccco1)c1sc(-c2cccnc2)nc1Cl` [Compound 576], the figures for the pest or weed control at 200 ppm in experiment [1] (Abbott's correction formula) and in experiment [2] (Abbott's correction formula) were 80 to 100% and under 80%, respectively.
For the molecule `CC(C)(C)OC(=O)Nc1sc(-c2cncc(F)c2)nc1F` [Compound 353, [4-fluoro-2-(5-fluoro-pyridin-3-yl)-thiazol-5-yl]-carbamic acid tert-butyl ester], the pest or weed control at 200 ppm in experiment [1] (green peach aphid) was under 80%; in experiment [2] (sweetpotato whitefly-crawler) it was 80 to 100%.
In the case of `CSCC(C)C(=O)N(C)c1sc(-c2cncnc2)nc1C` (centres unmarked) [Compound 52], the pest or weed control at 200 ppm was under 80% in experiment [1] (green peach aphid) and 80 to 100% in experiment [2] (sweetpotato whitefly-crawler).
In the case of `CSCCC(=O)N(C)c1sc(-c2ccc(F)nc2)nc1Cl` [Compound 453, N-[4-chloro-2-(6-fluoro-pyridin-3-yl)-thiazol-5-yl]-N-methyl-3-methylsulfanyl-propionamide], the pest or weed control at 200 ppm in experiment [1] (Abbott's correction formula) and in experiment [2] (Abbott's correction formula) was 80 to 100% throughout.
On to `CSCC(C)(C)C(=O)Nc1sc(-c2cncc(F)c2)nc1C` [Compound 139], for which the pest or weed control at 200 ppm in experiment [1] (green peach aphid) and in experiment [2] (sweetpotato whitefly-crawler) was 80 to 100% throughout.
For the molecule `CSCC(C)C(=O)Nc1sc(-c2cncc(C)c2)nc1C` (centres unmarked) [Compound 171, 2-methyl-N-[4-methyl-2-(5-methyl-pyridin-3-yl)-thiazol-5-yl]-3-methylsulfanyl-propionamide], the values for the pest or weed control at 200 ppm in experiment [1] (green peach aphid) and in experiment [2] (sweetpotato whitefly-crawler) were 80 to 100% and under 80%, respectively.
Take `CCN(C(=O)C(C)C(C)[S+](C)[O-])c1sc(-c2cccnc2)nc1Cl` (centres unmarked) [Compound 565]: the pest or weed control at 200 ppm in experiment [1] (Abbott's correction formula) and in experiment [2] (Abbott's correction formula) was 80 to 100% in each case.

Source of the values: patent US8853246B2 (Dow AgroSciences LLC, priority 2009, dated 2014).
